Reference: patent publication US8956878B2, “Polypeptides with affinity for heat shock proteins (HSPS) and HSP associated complexes (HACS) and their use in diagnosis and therapy” (Atlantic Cancer Research Institute, priority 2011, dated 2015)
Like-named read-outs stand apart in the source and are kept apart here.

Assays:
[1] = test system: recombinant A. davidanieli HSP70 (adHSP70); format: binding, Arthrobacter davidanieli; conditions: for CHIEF complex formation with adHSP70: substance as counter migrant to adHSP70
[2] = molecular target: T1, Recombinant Mycobacterium tuberculosis HSP70 (Mycobacterium tuberculosis, UniProt P9WMJ9); format: binding; conditions: IEF gel, counter migrant
T1 construct: purchased Aalto, Eire

Recombinant murine HSP70 = Recombinant murine HSP70 (Mus musculus, UniProt Q61696); experiment: CHIEF against recombinant murine HSP70; format: binding; conditions: 40 μg peptide
[3] = test system: vesicular material from culture medium or biological fluid; experiment: Fractionation of vesicular material; conditions: as second peptide portion of the polypeptide
Source text: (§1) In another embodiment, the at least one second peptide portion contributes to the selectivity of the affinity of the polypeptide.

human HSP70 = human HSP70 (Homo sapiens, UniProt P0DMV8); experiment: CHIEF against recombinant human HSP70; format: binding; conditions: 1 μg HSP70, 15 μg peptide
rat HSP70 = rat HSP70 (Rattus norvegicus, UniProt P0DMW0); experiment: CHIEF against recombinant rat HSP70; format: binding; conditions: 1 μg HSP70, 15 μg peptide
[4] = molecular target: cytoplasmic recombinant human HSP90 (Homo sapiens, UniProt P07900); experiment: CHIEF against recombinant human HSP90; format: binding; conditions: IEF gel, counter migrant
[5] = molecular target: glycoprotein 96 (gp96; canine) (Canis lupus familiaris, UniProt P41148); experiment: CHIEF against gp96 (ER isoform of HSP90); format: binding; conditions: IEF gel, counter migrant
[6] = test system: Nalm-6 cytoplasmic and membrane associated proteins; experiment: CHIEF against subcellular fractions of Nalm-6 leukemia cells; format: binding
Source text: Abbreviations: φ=No peptide added at anode; MBPWT1, MBP100-117_WT1 117-134; MBP, MBP100-117; WT1, WT1 117-134. […] The arrowheads in lanes 2, 6, 10 (top), 14 and 18 (top) indicate expected CHIEF complex focusing near the 6.8 pl marker. The arrowheads in lanes 10 (bottom) and 18 (bottom) indicate the appearance of a CHIEF complex focusing near the 7.4 pl marker. The arrowheads in lane 5 and 19 (top and bottom) indicate where there has been cross over of the MBP117-134WT1 peptide into an adjacent lane causing a drive-by or swipe CHIEF complex formation (lane 5, lane 19).
Three identical lanes were prepared for the generation of CHIEF complexes between MBP100-117WT1 117-134 (80 μg) and 10 μg of Nalm-6 membrane associated proteins.
(§2) The example investigates the possibility that the bMBPWT1 peptide binds HSPs directly from cell lysates in a similar manner to when single recombinant HSP was used as a counter ion. Cancer cells are addicted to the overexpression of HSPs to support growth under poor environmental conditions, to facilitate the function of otherwise unstable oncoproteins and the ablation of apoptosis. Most, if not all, cancer cells should provide a rich source of human HSPs to serve as complex forming counter migrants for the MBP peptide co-synthesised with WT1 and SW peptides. […]

[7] = test system: MDA MB231 cytoplasmic and membrane associated proteins; experiment: CHIEF against subcellular fractions of MDA MB231 breast cancer cells; format: binding; conditions: 80 μg peptide, 10 μg subcellular fraction
Experimental: Abbreviations: φ=No peptide added at anode; MBPWT1, MBP100-117_WT1 117-134; MBP, MBP100-117; WT1, WT1 117-134. All peptides applied at cathode at a concentration of 80 μg (sic); subcellular fractions applied at cathode at a concentration of 10 μg. The arrowheads in lanes 2, 6, 10 (top), 14 and 18 (top) indicate expected CHIEF complex focusing near the 6.8 pl marker. The arrowheads in lanes 10 (bottom) and 18 (bottom) indicate the appearance of a CHIEF complex focusing near the 7.4 pl marker. The arrowheads in lane 5 and 19 (top and bottom) indicate where there has been cross over of the MBP117-134WT1 peptide into an adjacent lane causing a drive-by or swipe CHIEF complex formation (lane 5, lane 19).
as §2

[8] = test system: SKBR3 cytoplasmic proteins; experiment: CHIEF against SKBR3 cytoplasmic proteins; format: binding; conditions: 7 μg protein per lane
Experimental: MBPWT1 peptide was tested as a counter ion to proteins from breast cancer cell line SKBR3. MBP co-synthesised with survivin peptides were also used as alternative sources of counter ions (FIG. 10).
The increased degree of complex formation observed in FIG. 10 prompted a closer evaluation of MBP co-synthesized with the three chosen survivin peptides 20-28, isoform 3 88-96 and 96-104.

PC3 (prostate cancer) = experiment: Peptide in extracellular medium of PC3 cells; format: cell-based; conditions: 7-25 μg/mL in extracellular medium, within 24 hours
Experimental: (§3) The alpha helix and flanking sequences may permit the peptides of the application to resist the protease rich medium of cancer cells, a trait shared by human tissue fluids (e.g. serum). […] Since all major cancer causing species rely upon scaffolding by HSPs for stability and function, the peptides may represent a source of direct therapeutic application.
(§4) When the peptides of the present application were included in the extracellular medium of the cancer cell lines (at concentrations of 7-25 μg/mL) such as PC3 (prostate cancer) and MCF7 (breast cancer), there was an inhibition of the protein synthesis and cell lysis within 24 hours. […] Since all major cancer causing species rely upon scaffolding by HSPs for stability and function, the peptides may represent a source of direct therapeutic application.

MCF7 (breast cancer) = experiment: Peptide in extracellular medium of MCF7 cells; format: cell-based; conditions: 7-25 μg/mL in extracellular medium, within 24 hours
Experimental: as §3, §4

[9] = test system: HACs from sub-cellular extracts; experiment: Fractionation of HACs from sub-cellular extracts; conditions: as second peptide portion of the polypeptide
Source text: as §1

T1 sequence (P9WMJ9 whole entry): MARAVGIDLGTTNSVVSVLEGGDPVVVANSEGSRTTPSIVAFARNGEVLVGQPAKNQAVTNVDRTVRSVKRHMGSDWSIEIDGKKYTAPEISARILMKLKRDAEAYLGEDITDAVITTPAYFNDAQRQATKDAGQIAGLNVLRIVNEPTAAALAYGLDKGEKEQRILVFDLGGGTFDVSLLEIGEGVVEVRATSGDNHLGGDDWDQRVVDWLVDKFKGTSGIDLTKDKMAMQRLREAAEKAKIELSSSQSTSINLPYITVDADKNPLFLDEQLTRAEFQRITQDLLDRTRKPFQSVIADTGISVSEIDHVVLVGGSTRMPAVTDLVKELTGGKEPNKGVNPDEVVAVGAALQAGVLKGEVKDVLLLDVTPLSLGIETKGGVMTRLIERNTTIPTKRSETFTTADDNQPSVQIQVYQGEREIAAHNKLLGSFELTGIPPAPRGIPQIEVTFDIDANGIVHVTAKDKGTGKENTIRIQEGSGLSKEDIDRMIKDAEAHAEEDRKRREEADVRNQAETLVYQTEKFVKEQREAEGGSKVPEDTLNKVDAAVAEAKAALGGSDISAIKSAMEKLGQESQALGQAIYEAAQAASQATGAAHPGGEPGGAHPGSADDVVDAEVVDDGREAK
Recombinant murine HSP70, sequence (Q61696 whole entry): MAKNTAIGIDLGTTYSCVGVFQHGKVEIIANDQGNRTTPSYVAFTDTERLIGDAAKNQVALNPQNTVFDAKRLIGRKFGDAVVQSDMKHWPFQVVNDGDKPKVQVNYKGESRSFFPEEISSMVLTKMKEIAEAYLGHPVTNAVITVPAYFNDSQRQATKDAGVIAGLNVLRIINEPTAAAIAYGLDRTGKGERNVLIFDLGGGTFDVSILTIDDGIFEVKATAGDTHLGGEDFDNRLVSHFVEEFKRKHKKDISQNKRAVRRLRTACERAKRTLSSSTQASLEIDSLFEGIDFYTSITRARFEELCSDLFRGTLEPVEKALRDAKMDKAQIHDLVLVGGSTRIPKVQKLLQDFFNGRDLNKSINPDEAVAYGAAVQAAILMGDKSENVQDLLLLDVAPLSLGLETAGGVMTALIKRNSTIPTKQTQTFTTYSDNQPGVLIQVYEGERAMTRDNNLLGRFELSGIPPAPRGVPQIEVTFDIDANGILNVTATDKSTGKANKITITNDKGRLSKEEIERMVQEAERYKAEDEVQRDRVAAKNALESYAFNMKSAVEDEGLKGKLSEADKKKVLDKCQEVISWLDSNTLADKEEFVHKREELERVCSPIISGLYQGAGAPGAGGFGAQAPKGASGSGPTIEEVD
glycoprotein 96 (gp96; canine), sequence (P41148 22-804): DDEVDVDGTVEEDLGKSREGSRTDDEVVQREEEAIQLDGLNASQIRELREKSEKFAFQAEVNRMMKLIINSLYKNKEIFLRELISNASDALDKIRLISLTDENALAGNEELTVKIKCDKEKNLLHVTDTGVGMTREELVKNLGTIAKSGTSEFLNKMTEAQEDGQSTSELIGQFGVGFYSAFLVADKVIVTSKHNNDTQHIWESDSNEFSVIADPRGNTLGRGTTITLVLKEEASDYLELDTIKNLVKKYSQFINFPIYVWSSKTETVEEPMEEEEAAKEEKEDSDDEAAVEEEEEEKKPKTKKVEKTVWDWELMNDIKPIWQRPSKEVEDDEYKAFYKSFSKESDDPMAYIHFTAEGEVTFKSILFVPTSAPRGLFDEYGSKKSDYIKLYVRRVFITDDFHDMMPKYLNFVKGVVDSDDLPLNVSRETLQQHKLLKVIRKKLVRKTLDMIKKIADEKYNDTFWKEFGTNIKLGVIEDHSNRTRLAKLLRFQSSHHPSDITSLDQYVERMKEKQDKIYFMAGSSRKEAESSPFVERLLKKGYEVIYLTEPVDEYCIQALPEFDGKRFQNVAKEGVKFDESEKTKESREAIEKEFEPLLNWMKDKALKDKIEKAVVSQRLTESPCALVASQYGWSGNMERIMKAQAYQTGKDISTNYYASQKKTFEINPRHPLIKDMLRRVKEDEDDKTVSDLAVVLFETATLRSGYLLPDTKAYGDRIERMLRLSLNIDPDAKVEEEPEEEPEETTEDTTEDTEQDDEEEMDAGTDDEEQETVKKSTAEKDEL
rat HSP70, sequence (P0DMW0 whole entry): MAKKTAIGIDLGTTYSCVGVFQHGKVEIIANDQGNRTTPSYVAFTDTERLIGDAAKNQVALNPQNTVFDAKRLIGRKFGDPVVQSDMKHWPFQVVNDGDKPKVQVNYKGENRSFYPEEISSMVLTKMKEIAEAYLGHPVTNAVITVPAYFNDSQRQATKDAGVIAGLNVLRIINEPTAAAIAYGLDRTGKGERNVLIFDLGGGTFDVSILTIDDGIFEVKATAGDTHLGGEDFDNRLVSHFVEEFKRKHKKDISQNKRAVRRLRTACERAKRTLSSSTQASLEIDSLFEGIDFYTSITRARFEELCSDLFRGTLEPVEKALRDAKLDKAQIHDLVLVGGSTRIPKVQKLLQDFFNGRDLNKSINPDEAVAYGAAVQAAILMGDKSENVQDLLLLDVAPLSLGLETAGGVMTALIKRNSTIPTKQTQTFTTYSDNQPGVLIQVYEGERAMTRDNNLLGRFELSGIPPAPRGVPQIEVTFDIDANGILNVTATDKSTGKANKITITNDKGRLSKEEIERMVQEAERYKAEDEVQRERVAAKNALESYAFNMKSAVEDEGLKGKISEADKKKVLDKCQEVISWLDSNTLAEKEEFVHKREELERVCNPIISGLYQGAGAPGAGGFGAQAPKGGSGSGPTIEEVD
human HSP70, sequence (P0DMV8 whole entry): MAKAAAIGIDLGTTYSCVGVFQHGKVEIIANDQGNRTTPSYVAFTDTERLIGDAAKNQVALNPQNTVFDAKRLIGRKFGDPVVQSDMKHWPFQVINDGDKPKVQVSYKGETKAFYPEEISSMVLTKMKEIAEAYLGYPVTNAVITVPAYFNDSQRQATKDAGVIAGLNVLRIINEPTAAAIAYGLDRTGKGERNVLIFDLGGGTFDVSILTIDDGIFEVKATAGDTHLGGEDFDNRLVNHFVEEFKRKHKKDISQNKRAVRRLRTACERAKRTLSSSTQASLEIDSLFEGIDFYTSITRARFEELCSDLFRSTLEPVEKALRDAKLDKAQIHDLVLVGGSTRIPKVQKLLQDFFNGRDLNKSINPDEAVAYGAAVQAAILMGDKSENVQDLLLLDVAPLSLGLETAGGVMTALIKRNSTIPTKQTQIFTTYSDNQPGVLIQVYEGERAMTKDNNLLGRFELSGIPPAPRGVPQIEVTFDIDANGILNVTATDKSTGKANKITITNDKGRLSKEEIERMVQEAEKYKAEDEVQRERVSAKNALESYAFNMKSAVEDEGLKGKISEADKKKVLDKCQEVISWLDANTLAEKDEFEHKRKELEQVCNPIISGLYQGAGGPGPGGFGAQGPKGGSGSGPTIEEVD

Molecule: PSQGKGRGLSLSRFSWGA (listed as Bos taurus) [SEQ ID NO: 2]
- effect of high peptide concentration on complex formation with adHSP70 ([1]; 100 μg peptide, 2 μg adHSP70): appears to inhibit complex formation
- CHIEF complex formation with adHSP70 ([1]; IEF gel, listed as 100-117): produced counter ion complexes
- CHIEF complex formation with adHSP70 ([1]; IEF gel, listed as MBP 100-117): binding
- CHIEF complex formation with adHSP70 ([1]; IEF gel, listed as MBP peptide): far more limited complex formation
- CHIEF complex formation with M. tuberculosis HSP70 ([2]; listed as 100-117): produced counter ion complexes
- CHIEF complex formation with M. tuberculosis HSP70 ([2]; listed as MBP peptide): counter migrant complex formed
- CHIEF complex formation with murine HSP70 (Recombinant murine HSP70): complexed

Molecule: LTLGEFLKL (listed as Homo sapiens) [SEQ ID NO: 8]
- efficiency of fractionating vesicular material [3]: more efficient

Molecule: MBP 62-78: candidate binding peptide, residues 62-78 of bovine myelin basic protein (ARTTHYGSLPQKAQGHR)
- CHIEF complex formation with adHSP70 ([1]; IEF gel): negligible binding

Molecule: WT1 117-134: Wilms tumor protein 1 peptide 117-134 (PSQASSGQARMFPNAPYL) [reference compound]
- CHIEF complex formation with adHSP70 ([1]; IEF gel): no evidence of binding
- CHIEF complex formation with adHSP70 ([1]; IEF gel, listed as WT1): limited complex formation

Molecule: trypsinogen
- CHIEF complex formation with adHSP70 ([1]; IEF gel): did not interact

Molecule: myoglobin
- CHIEF complex formation with adHSP70 ([1]; IEF gel): did not interact

Molecule: MBPWT1: MBP peptide 100-117 co-synthesised with Wilms tumor protein 1 peptide 117-134 (PSQGKGRGLSLSRFSWGAPSQASSGQARMFPNAPYL)
- CHIEF complex formation with adHSP70 ([1]; IEF gel): appeared to augment the formation of the complex
- CHIEF complex formation with human HSP70 (human HSP70): Some evidence of counter migrant complex formation
- CHIEF complex formation with rat HSP70 (rat HSP70): Some evidence of counter migrant complex formation
- CHIEF complex formation with human HSP90 [4]: produced complexes
- CHIEF complex formation with gp96 [5]: produced complexes
- CHIEF complex formation with Nalm-6 cytoplasmic proteins ([6]; 80 μg peptide, 10 μg subcellular fraction): yielded similar CHIEF complexes
- CHIEF complex formation with Nalm-6 proteins at lower peptide amount ([6]; concentrations below 80 μg): occasionally produced only modest complexes
- CHIEF complex formation with MDA MB231 cytoplasmic proteins [7]: yielded similar CHIEF complexes
- CHIEF complex formation with SKBR3 proteins [8]: Small counter migrant complexes formed

Molecule: PSQGKGRGLSLSRFSWGALRRKCAVPS [SEQ ID NO: 66]
- CHIEF complex formation with SKBR3 proteins [8]: much larger band formed
- effect on protein synthesis and cell lysis, PC3 (PC3 (prostate cancer)): drastic inhibition of protein synthesis and cell lysis
- effect on protein synthesis and cell lysis, MCF7 (MCF7 (breast cancer)): drastic inhibition of protein synthesis and cell lysis

Molecule: carbonic anhydrase
- CHIEF complex formation with adHSP70 ([1]; IEF gel): did not interact

Molecule: LRRKCAVPS (listed as Homo sapiens) [SEQ ID NO: 9]
- efficiency of fractionating HACs from sub-cellular extracts [9]: more efficiently fractionated

Molecule: histone 2A
- CHIEF complex formation with adHSP70 ([1]; IEF gel): yielded an identical complex

Molecule: lysozyme
- CHIEF complex formation with adHSP70 ([1]; IEF gel): did bind
- CHIEF complex formation with M. tuberculosis HSP70 [2]: complexed

B1: Bovine myelin basic protein (protein)
chain: AAQKRPSQRSKYLASASTMDHARHGFLPRHRDTGILDSLGRFFGSDRGAPKRGSGKDGHHAARTTHYGSLPQKAQGHRPQDENPVVHFFKNIVTPRTPPPSQGKGRGLSLSRFSWGAEGQKPGFGYGGRASDYKSAHKGLKGHDAQGTLSKIFKLGGRDSRSGSPMARR
- focusing position (pI marker) of CHIEF complex with adHSP70 ([1]; IEF gel): ~6.5
- CHIEF complex formation with adHSP70 ([1]; IEF gel): bound
- CHIEF complex formation with adHSP70 ([1]; IEF gel, listed as MBP): binding
- CHIEF complex formation with M. tuberculosis HSP70 [2]: complexed
